# Measurements as given in patent publication EP0022969A1, “Antimycotic compositions containing azolylalkenols and their preparation” (BAYER AG, priority 1979, dated 1981).
# System: Trichophyton mentagrophytes
# Assay: Antimicrobial in vivo activity (local) in experimental guinea pig trichophytosis
# Parameters: species or system Meerschweinchen der Rasse Pirbright-white
# Settings: guinea pigs infected with Trichophyton mentagrophytes; 1% solution in DMSO:glycerol 1:4, local, once daily from day 3 p.i.; meaning only slight redness and isolated scales, or no signs of infection
# Source text: Weiße Meerschweinchen der Rasse Pirbright-white wurden auf dem geschorenen, nicht skarifizierten Rücken mit einer Mikro- und Makrokonidien-Suspension von Trichophyton mentagrophytes infiziert.
# Die infizierten Tiere wurden, beginnend mit dem 3.Tag p.i., 1 x täglich mit 1%-iger Lösung der erfindungsgemäßen Präparate (in Dimethylsulfoxid:Glycerin=1:4) lokal behandelt.
# Bei unbehandelten Tieren entwickelt sich innerhalb von 12 Tagen p.i. das typische Bild einer Dermatophytose mit Rötung, Schuppung und Haarausfall bis zum totalen Integument-Defekt an der Infektionsstelle.
row,SMILES,Wirkung (Infektionszeichen)
1,CC(C)(C)C(O)C(=Cn1ccnc1)Oc1ccc(F)cc1 (stereo not drawn) [Beispiel 1],gute bis sehr gute Wirkung
2,CC(C)(C)C(O)C(=Cn1ccnc1)Oc1ccccc1Cl (stereo not drawn) [Beispiel 5],gute bis sehr gute Wirkung
3,CC(C)(C)C(O)C(=Cn1ccnc1)Oc1ccc(F)cc1Cl (stereo not drawn) [Beispiel 9],gute bis sehr gute Wirkung
